{"source": "ChEMBL document CHEMBL2074292", "about": "“Isolation, characterization and differential gene expression of multispecific organic anion transporter 2 in mice” (Mol Pharmacol, 2002)", "molecules": {"B1": {"name": "Solute carrier family 22 member 7 (Mus musculus) (protein)", "chain": "MGFEELLHKVGGFGPFQLRNLVLLALPRFLLPMHFLLPIFMAAVPAHHCALPDAPANLSHQDLWLKTHLPRETDGSFSSCLRFAYPQALPNVTLGTEVYNSGEPEGEPLTVPCSQGWEYDRSEFSSTIATEWDLVCEQRGLNKVTSTCFFIGVLLGAVVYGYLSDRFGRRRLLLVAYVSTLALGLMSAASVNYIMFVTTRMLTGSALAGFTIIVLPLELEWLDVEHRTVAGVISTTFWTGGVLLLTLVGYLIRSWRWLLLAATLPCVPGIISIWWVPESARWLLTQGRVEEAKKYLSICAKLNGRPISEDSLSQEALNKVITMERVSQRPSYLDLFRTSQLRHVSLCCMMMWFGVNFSYYGLTLDASGLGLTVYQTQLLFGAVEVPSKITVFFLVRLVGRRLTEAGMLLATALTFGISLLVSSDTKSWITALVVIGKAFSEAAFTTAYLFTSELYPTVLRQTGMGFTALIGRLGASLAPLVVLLDGVWLLLPKLAYGGISFLAACTVLLLPETKKAQLPETIQDVERKGRKIDRSGTELA"}}, "key": {"[1]": {"molecular_target": "T1, Solute carrier family 22 member 7 (Mus musculus, UniProt Q91WU2)", "T1 sequence (Q91WU2 whole entry)": "B1 chain", "assay": "TP_TRANSPORTER: inhibition of Glutarate uptake (Glutarate: 5 uM, BSP: 250 uM) in Xenopus laevis oocytes", "format": "functional, cell-based", "conditions": "oocyte"}, "[2]": {"molecular_target": "T1, Solute carrier family 22 member 7", "assay": "(§1) TP_TRANSPORTER: uptake in Xenopus laevis oocytes", "format": "functional, cell-based", "conditions": "oocyte"}, "[3]": {"molecular_target": "T1, Solute carrier family 22 member 7", "assay": "TP_TRANSPORTER: inhibition of Glutarate uptake (Glutarate: 5 uM, Cefoperazone: 1000 uM) in Xenopus laevis oocytes", "format": "functional, cell-based", "conditions": "oocyte"}, "[4]": {"molecular_target": "T1, Solute carrier family 22 member 7", "assay": "TP_TRANSPORTER: inhibition of Glutarate uptake (Glutarate: 5 uM, ICG: 1000 uM) in Xenopus laevis oocytes", "format": "functional, cell-based", "conditions": "oocyte"}, "[5]": {"molecular_target": "T1, Solute carrier family 22 member 7", "assay": "TP_TRANSPORTER: inhibition of Glutarate uptake (Glutarate: 5 uM, Oxaloacetate: 1000 uM) in Xenopus laevis oocytes", "format": "functional, cell-based", "conditions": "oocyte"}, "[6]": {"molecular_target": "T1, Solute carrier family 22 member 7", "assay": "TP_TRANSPORTER: inhibition of Glutarate uptake (Glutarate: 5 uM, Enalapril: 1000 uM) in Xenopus laevis oocytes", "format": "functional, cell-based", "conditions": "oocyte"}, "[7]": {"molecular_target": "T1, Solute carrier family 22 member 7", "assay": "TP_TRANSPORTER: inhibition of Glutarate uptake (Glutarate: 5 uM, Erythromycin: 1000 uM) in Xenopus laevis oocytes", "format": "functional, cell-based", "conditions": "oocyte"}, "[8]": {"substrate": "CCCCC[C@H](O)/C=C/[C@H]1[C@H](O)CC(=O)[C@@H]1C/C=C\\CCCC(=O)O", "assay": "as §1", "format": "functional, cell-based, Oocyte"}, "[9]": {"substrate": "O=C(O)CCCC(=O)O", "assay": "as §1", "format": "functional, cell-based, Oocyte"}}}
{"molecule": "O=C1OC(c2ccc(O)c(S(=O)(=O)[O-])c2)(c2ccc(O)c(S(=O)(=O)[O-])c2)c2c(Br)c(Br)c(Br)c(Br)c21.[Na+].[Na+]", "note": "[SULFOBROMOPHTHALEIN SODIUM]", "values": [{"measurement": "Activity", "setting": "[1]", "value": "inhibitor [(at a rough estimate) 25 % of control]"}]}
{"molecule": "C[C@@H]1Cc2c(Cl)cc(C(=O)N[C@@H](Cc3ccccc3)C(=O)O)c(O)c2C(=O)O1", "note": "[3R14S-OCHRATOXIN A]", "values": [{"measurement": "Activity", "setting": "[2]", "value": "substrate [+]"}]}
{"molecule": "CCN1CCN(C(=O)N[C@@H](C(=O)N[C@@H]2C(=O)N3C(C(=O)O)=C(CSc4nnnn4C)CS[C@H]23)c2ccc(O)cc2)C(=O)C1=O", "note": "[CEFOPERAZONE]", "values": [{"measurement": "Activity", "setting": "[3]", "value": "inhibitor [(at a rough estimate) 40 % of control]"}]}
{"molecule": "O=C(O)CCC(=O)C(=O)O", "note": "[ALPHA-KETOGLUTARIC ACID]", "values": [{"measurement": "Activity", "setting": "[2]", "value": "substrate [+]"}]}
{"molecule": "Oc1ncnc2[nH]ncc12", "note": "[ALLOPURINOL]", "values": [{"measurement": "Activity", "setting": "[2]", "value": "substrate [+]"}]}
{"molecule": "CC1(C)C(/C=C/C=C/C=C/C=C2/N(CCCCS(=O)(=O)[O-])c3ccc4ccccc4c3C2(C)C)=[N+](CCCCS(=O)(=O)[O-])c2ccc3ccccc3c21.[Na+]", "note": "[INDOCYANINE GREEN]", "values": [{"measurement": "Activity", "setting": "[4]", "value": "inhibitor [(at a rough estimate) 30 % of control]"}]}
{"molecule": "O=C(O)c1ccccc1O", "note": "[SALICYLIC ACID]", "values": [{"measurement": "Activity", "setting": "[2]", "value": "is not a substrate [-]"}]}
{"molecule": "O=C(O)CC(=O)C(=O)O", "note": "[OXALOACETATE]", "values": [{"measurement": "Activity", "setting": "[5]", "value": "inhibitor [(at a rough estimate) 45 % of control]"}]}
{"molecule": "CCOC(=O)[C@H](CCc1ccccc1)N[C@@H](C)C(=O)N1CCC[C@H]1C(=O)O", "note": "[ENALAPRIL]", "values": [{"measurement": "Activity", "setting": "[6]", "value": "inhibitor [(at a rough estimate) 30 % of control]"}]}
{"molecule": "CC[C@H]1OC(=O)[C@H](C)[C@@H](O[C@H]2C[C@@](C)(OC)[C@@H](O)[C@H](C)O2)[C@H](C)[C@@H](O[C@@H]2O[C@H](C)C[C@H](N(C)C)[C@H]2O)[C@](C)(O)C[C@@H](C)C(=O)[C@H](C)[C@@H](O)[C@]1(C)O", "note": "[ERYTHROMYCIN]", "values": [{"measurement": "Activity", "setting": "[7]", "value": "inhibitor [(at a rough estimate) 20 % of control]"}]}
{"molecule": "CCCC(CCC)C(=O)O", "note": "[VALPROIC ACID]", "values": [{"measurement": "Activity", "setting": "[2]", "value": "substrate [+]"}]}
{"molecule": "Nc1ccc(C(=O)NCC(=O)O)cc1", "note": "[AMINOHIPPURIC ACID]", "values": [{"measurement": "Activity", "setting": "[2]", "value": "substrate [+]"}]}
{"molecule": "B1", "values": [{"measurement": "Km", "setting": "[8]", "value": 5.2, "unit": "nM"}, {"measurement": "Km", "setting": "[9]", "value": 15.8, "unit": "µM"}]}
